Experimental data taken from patent publication US9725482B2, “Pentacyclic triterpenoid compound with modified structure and preparation method and use thereof” (Suzhou Botany Biomedicals Co., Ltd, priority 2013, dated 2017).

What was measured:
HaCat keratinocytes = experiment: In vitro inhibition of growth of skin keratinocyte (CCK-8); type: cell-based; details: 24 hours; for concentration that completely inhibits the growth of the skin keratinocyte: HaCat cells, CCK-8
Protocol: HaCat keratinocytes (purchased from ATCC) in a logarithmic growth phase were inoculated in a 96-well plate, with 2×10^4 cells for each well. The compound of formula (II) and AKBA were added respectively in a concentration gradient. The total volume was […]. DMSO was added in the control group to a final concentration of 0.25%. […] culture medium was added into the blank control well. Each group had three parallel experiments. After cultured in a cell incubator for 24 hours, […] CCK-8 solution was added into each well. Then the plate was placed in the incubator for incubation at 37° C. and 5% CO2 for 4 hours. OD value was measured at 450 nm by a microplate reader. The inhibition rate was calculated by the following equation: Inhibition Rate=[1−(OD of the test group/OD of the control group)]×100%.

5-LOX = target: T1, 5-LOX (Homo sapiens, UniProt P09917); details: Sailer et al., British J Pharmacology, 1996; cited from earlier work
T1 sequence (P09917 1-674): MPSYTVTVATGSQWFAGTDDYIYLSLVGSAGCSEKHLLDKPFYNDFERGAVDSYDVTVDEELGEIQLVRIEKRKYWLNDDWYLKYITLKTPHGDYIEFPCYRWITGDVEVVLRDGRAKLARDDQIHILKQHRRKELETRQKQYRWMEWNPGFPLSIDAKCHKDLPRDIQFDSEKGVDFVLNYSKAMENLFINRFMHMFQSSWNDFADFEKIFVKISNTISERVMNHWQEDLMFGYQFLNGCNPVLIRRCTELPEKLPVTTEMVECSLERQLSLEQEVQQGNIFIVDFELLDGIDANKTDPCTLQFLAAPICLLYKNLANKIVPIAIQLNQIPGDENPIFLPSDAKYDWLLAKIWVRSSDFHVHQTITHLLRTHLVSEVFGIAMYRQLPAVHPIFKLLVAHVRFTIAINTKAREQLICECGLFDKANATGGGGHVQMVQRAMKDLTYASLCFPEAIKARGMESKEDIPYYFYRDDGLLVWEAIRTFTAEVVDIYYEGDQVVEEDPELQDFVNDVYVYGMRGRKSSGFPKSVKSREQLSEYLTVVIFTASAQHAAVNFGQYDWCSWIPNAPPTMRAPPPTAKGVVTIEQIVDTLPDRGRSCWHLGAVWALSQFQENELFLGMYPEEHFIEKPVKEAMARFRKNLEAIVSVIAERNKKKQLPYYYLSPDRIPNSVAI

mouse psoriasis model [1] = experiment: Treatment of mice psoriasis induced by imiquimod with gel formulation; type: in vivo, Balb/c mice; details: 0.5% (w/w) gel, day 8 to day 14, topical
Protocol: (§1) Thirty age- and sex-matched Balb/c mice, 10 in the control group using a blank gel, 10 in the treatment group using AKBA gel and 10 in the treatment group using CKBA gel, were coated on their backs by imiquimod (62.5 mg/day for each mouse) for 7 days to establish mouse psoriasis model. At day 8 to day 14, the blank gel (Control), AKBA gel (0.5% (w/w)) and CKBA gel (0.5% (w/w)) were administered to the mice for treatment, respectively. Imiquimod was administered every two days to the back of the mice to maintain the skin inflammation. At day 15 pictures were took for the skin lesions of the psoriasis mice. Then the mice were sacrificed by cervical vertebra luxation and the skin from the skin lesion was cut and fixed by 4% paraformaldehyde to prepare HE pathological sections.
as §1, with “(0.2%” for “(0.5%”

mouse psoriasis model [2] = experiment: as above; type: in vivo, Balb/c mice; details: 0.2% (w/w) gel, day 8 to day 14, topical
TH1 cells = experiment: Inhibition of in vitro differentiation of TH1 cells from naive T cells (flow cytometry); type: cell-based, C57BL/6J mice; details: 2 μm, 4 days, IFN-γ staining
Protocol: (§2) C57BL/6J mice of 6-8 week old were sacrificed by cervical vertebra luxation. The spleen was taken and ground. The cells were sieved to prepare a single-cell suspension. After dyeing on their surfaces by CD4-APC, CD25 PerCP-Cy 5.5 and CD62L-FITC, the cells were sorted by BD FACSAria III flow cytometry. The naïve T cells, i.e., CD4^+CD25^−CD62L^hi+ T cells, were used for induced differentiation of TH1, TH17 and Treg. A gradient of concentration of CKBA was added for incubation. Cells were collected after 4 days and then further cultured in incubator at 37° C. and 5% CO2 for 4-6 hours in 1640 complete culture medium supplemented with 750 ng/ml ionomycin and 50 ng/ml phorbol myristate acetate (PMA) and GolgiPlug. After suspension with PBS, the surface of the cell was stained by CD4-APC. After staining at 4° C. for 30 minutes, the cells were re-suspended once and then broke for 20 minutes at 4[…]. The cells were washed again by lotion and then stained by IFN-γ, IL-17A and FoxP3.

TH17 cells = experiment: Inhibition of in vitro differentiation of TH17 cells from naive T cells (flow cytometry); type: cell-based, C57BL/6J mice; details: 2 μm, 4 days, IL-17A staining
Protocol: as §2

Treg = experiment: In vitro differentiation of Treg from naive T cells (flow cytometry); type: cell-based, C57BL/6J mice; details: 2 μm, 4 days, FoxP3 staining
Protocol: as §2

SMILES	concentration that completely inhibits the growth of the skin keratinocyte (HaCat keratinocytes) [µM]	5-LOX inhibitory activity among boswellic acids (5-LOX)	mice psoriasis phenotype (mouse psoriasis model [1])	number of the inflammatory cells in dermis (mouse psoriasis model [1])	skin thickness (mouse psoriasis model [1])	inhibiting division and proliferation of HaCat cells as compared to AKBA (HaCat keratinocytes; concentration gradient)	mice psoriasis (mouse psoriasis model [2])	number of the inflammatory cells in dermis (mouse psoriasis model [2])	skin thickness (mouse psoriasis model [2])	treatment of mice psoriasis as compared to AKBA (mouse psoriasis model [1])	inhibition of in vitro differentiation of TH1 (TH1 cells)	inhibition of in vitro differentiation of TH17 (TH17 cells)	inhibition on differentiation of Treg (Treg)
CC(=O)O[C@@H]1CC[C@@]2(C)C(CC[C@]3(C)C2C(=O)C=C2C4[C@@H](C)[C@H](C)CC[C@]4(C)CC[C@]23C)[C@@]1(C)C(=O)O (stereo partly drawn) [AKBA, Acetyl-11-keto-β-boswellic acid, reference compound]	100	the most obvious 5-LOX inhibitory activity	effectively relieve	significantly reduce	significantly reduce								
C[C@H]1[C@H](C)CC[C@]2(C)CC[C@]3(C)C(=CC(=O)[C@@H]4[C@@]5(C)CC[C@@H](OC(=O)C6CCCCC6)[C@](C)(C(=O)O)[C@@H]5CC[C@]43C)[C@H]12 [CKBA, 3-o-α-cyclohexanoyl-11-keto-β-boswellic acid]	20		effectively relieve	significantly reduce	significantly reduce	more effective	effectively cure	significantly reduce	significantly reduce	more effectively treat	very effectively inhibit	very effectively inhibit	no inhibition
